Tests used:
mouse spleen cells = experiment: Mitogen (concanavalin A)-induced mouse spleen cell proliferation, 3H-thymidine incorporation; suppression by immunosuppressive factor and restoration; assay type: cell-based
Protocol: 1) Preparation of immunosuppressive factor from tumor bearing mice serum.
ICR mice were intraperitonealy inoculated with 0.2 ml of S-180 suspension (5x10^6 cells/ml). S-180 bearing mice were bled from heart under light ether anesthesia with sterile synringe between 7 and 9 days after transplantation and serum was collected.
Immunosuppressive factor was partially purified from the S-180 tumor bearing mice serum according to the method described by SE-KYUNG OH and F.L.MOOLTEN (J. Immunol., 127, 2300-2307, 1981). Briefly, the serum (50 ml) was delipidated with 1/10 vol. of 4% phosphotungstic acid and 1/40 vol of 2M magnesium chloride and centrifuged at 6000 x G for 10 min. Excess phosphotungstic acid and magnesium ion were removed by dialysis against phosphate- buffered saline (PBS: 0.15 M sodium chloride and 0.01 M phosphate buffer, pH 7.4). Then, partially delipidated serum was precipitated with ammonium sulfate at 50% saturation. The supernatant was removed by centrifugation at 20000 x G for 30 min. The precipitates were redissolved in a small volume of water and dialysed against PBS overnight at 4°C. The dialysed solution was chromatographed on Sephadex G-200 column in PBS. Each eluate (15 ml) was assayed for suppressive activity.
Immunosuppressive activity was measured by assay for inhibition of the mitogen-induced mouse spleen cell proliferation.
3) Suppression of mitogen-induced mouse spleen cell proliferation and its restoration by swainsonine in vitro.
Mitogenic activities for mouse spleen cells in vitro : • a) Mice. Female BALB/C strain (8 weeks of age) was used. • b) Tissue culture medium : The tissue culture medium employed was a complete medium designated Roswell Park Memorial Institute(RPMI)-1640. All media employed contained 100 units/ml of penicillin G and 100 µg/ml of streptomycin sulfate and 5% fetal calf serum. • c) Spleen cell preparation : Spleens were removed under sterile conditions and washed with Hanks solution and then teased in the tissue culture medium. The cells were suspended in the tissue culture medium to contain 5 x 10^5 cells/ml. • d) Culture conditions : Into each hole of Microtiteration plate (Falcon No. 3040) were poured 0.1 ml of the above cells suspension and 0.1 ml of the prescribed concentrate of the compound and/or immunosuppressive factor described above. […] The culture was incubated in triplicate at 37°C in a humidified atmosphere (95% air, 5% C02) for 48 hours. • e) Assay for mitogen induced mouse spleen cells proliferation. The mitogen induced mouse spleen cells proliferation was assayed for tritiated thymidine (^3H-thymidine) incorporation. In all tests, 20 pl of 10 micro curie (uCi)/ml of ^3H-thymidine was added to each hole for the 48 hours of culture. After further 24 hours incubation, the culture was terminated.
The resultant cells were filtered with filter paper, Whatman GF83 and washed successively with saline and with 5% trichloroacetic acid. The filter paper was dried and placed in a scintillator(toluene 1 liter containing 0.1 g of p-bis(5-phenyl oxazole)-benzene and 4 g of 2,5-diphenyloxazole), and ^3H-thymidine incorporated into DNA was measured.

[1] = system: mixed lymphocyte culture (MLC)-stimulated spleen cells; experiment: Mixed lymphocyte culture (MLC), 3H-thymidine uptake; assay type: cell-based, mice
Protocol: Female C57BL/6 mice, 8 weeks in age, and female BALB/c mice, 8 weeks in age were sacrificed, spleens were aseptically removed and single cell suspensions were prepared as sources of stimulating and responding cells, respectively. Prior to culture, the stimulator cells were treated with 200 µg/ml of mitomycin C for 45 minutes at 37°C, followed by three washes with PBS.
They were established at a final concentration of 0.2 x 10^6 cells/0.2 ml of reaction mixture and cultured in microtiteration plate (Falcon, No.3040) using RPMI medium supplemented with 10% fetal bovine serum and 5 x 10^-5M 2- mercaptoethanol. The culture was continued for 120 hours and pulse-labeled with ^3H-thymidine for 24 hours before the termination of incubation. The cells were collected and radioactivity was counted.

[2] = system: antibody forming capacities; experiment: Antibody forming capacity (PFC-SRBC) in Sarcoma 180 tumor bearing mice; assay type: in vivo
Protocol: Female ICR(8 weeks in age) mice were intraperitoneally inoculated with 0.2 ml of Sarcoma 180 suspension (5 x 10^6 cells/ml)at day 0. Samples were administered to mice intraperitoneally from 7 days before immunization with 5 x 10^8 SRBC, every day for five days.
The number of direct plaque forming cells per spleen was measured five days after immunization.

[3] = system: antibody forming capacities; experiment: Antibody forming capacity (PFC-SRBC) in mice immunosuppressed with mitomycin C; assay type: in vivo
Protocol: Female BDF1 (8 weeks in age) mice were injected intraperitoneally with mitomycin C (1 mg/kg) from four days before immuization with 5 x 10^8 SRBC, every day for three days. Samples also were administered to mice intraperitoneally from four days before immunization, every day for five days.
At day 9, mice were sacrificed and the number of direct plaque forming cells per spleen was measured by using Cunningham modification method.

[4] = system: Sarcoma-180 (S-180) cells; experiment: Murine transplantable tumor, total tumor cell packed volume in ascites; assay type: in vivo; details: mice
Protocol: Sarcoma-180 (S-180) cells (1 x 10^6 cells) were inoculated to ICR (female, 8 weeks old) mice intraperitoneally and then after, swainsonine was administered intraperitoneally daily for 5 days. The total tumor cell packed volume in ascites was measured 15 days after tumor cell inoculation.

[5] = swainsonine alone added to mouse spleen cell culture

## O[C@H]1[C@H]2[C@H](O)CCCN2C[C@H]1O [Swainsonine]
Mouse spleen cells; Con A and swainsonine added simultaneously
  Con A induced stimulation of ^3H-thymidine incorporation into mouse spleen cell, increase relative to Con A only: 10 times
Mouse spleen cells; Concanavalin A 0.3 µg/well + swainsonine 0.0002 µg/well
  ^3H-thymidine uptake (cpm): 67,017 cpm
Mouse spleen cells; Concanavalin A 0.3 µg/well + swainsonine 0.002 µg/well
  ^3H-thymidine uptake (cpm): 105,850 cpm
Mouse spleen cells; Concanavalin A 0.3 µg/well + swainsonine 0.02 µg/well
  ^3H-thymidine uptake (cpm): 108,748 cpm
Mouse spleen cells; Concanavalin A 0.3 µg/well + swainsonine 0.2 µg/well
  ^3H-thymidine uptake (cpm): 118,071 cpm
Mouse spleen cells; Concanavalin A 0.3 µg/well + swainsonine 2 µg/well
  ^3H-thymidine uptake (cpm): 100,480 cpm
Mouse spleen cells; Concanavalin A 0.3 µg/well + swainsonine 20 µg/well
  ^3H-thymidine uptake (cpm): 68,778 cpm
Mouse spleen cells; Concanavalin A 1 µg/well + Immunosuppressive factor 6 µl/well + swainsonine 0.002 µg/well
  ^3H-thymidine uptake (cpm): 69,313 cpm
Mouse spleen cells; Concanavalin A 1 µg/well + Immunosuppressive factor 6 µl/well + swainsonine 0.02 µg/well
  ^3H-thymidine uptake (cpm): 66,858 cpm
Mouse spleen cells; Concanavalin A 1 µg/well + Immunosuppressive factor 6 µl/well + swainsonine 0.2 µg/well
  ^3H-thymidine uptake (cpm): 70,890 cpm
Mouse spleen cells; Concanavalin A 1 µg/well + Immunosuppressive factor 6 µl/well + swainsonine 2 µg/well
  ^3H-thymidine uptake (cpm): 53,500 cpm
Mouse spleen cells; Concanavalin A 1 µg/well + Immunosuppressive factor 6 µl/well + swainsonine 20 µg/well
  ^3H-thymidine uptake (cpm): 37,746 cpm
Mouse spleen cells; Swainsonine alone, 0.0002 µg/well
  ^3H-thymidine uptake (cpm): 1,311 cpm
Mouse spleen cells; Swainsonine alone, 0.002 µg/well
  ^3H-thymidine uptake (cpm): 1,598 cpm
Mouse spleen cells; Swainsonine alone, 0.02 µg/well
  ^3H-thymidine uptake (cpm): 1,712 cpm
Mouse spleen cells; Swainsonine alone, 0.2 µg/well
  ^3H-thymidine uptake (cpm): 1,734 cpm
Mouse spleen cells; Swainsonine alone, 2 µg/well
  ^3H-thymidine uptake (cpm): 1,726 cpm
Mouse spleen cells; Swainsonine alone, 20 µg/well
  ^3H-thymidine uptake (cpm): 1,260 cpm
Mouse spleen cells; swainsonine added to culture containing immunosuppressive factor
  suppression of mitogenic response by immunosuppressive factor: prevented the suppression
Mouse spleen cells; [5]
  mitogenic activity of mouse spleen cell: did not affected
  spleen cell viability: did not affected
[1]; MLC with immunosuppressive factor (3 µl) + swainsonine 0.00002 µg/well
  ^3H-thymidine uptake (cpm): 10,449 cpm
[1]; MLC with immunosuppressive factor (3 µl) + swainsonine 0.0002 µg/well
  ^3H-thymidine uptake (cpm): 13,015 cpm
[1]; MLC with immunosuppressive factor (3 µl) + swainsonine 0.002 µg/well
  ^3H-thymidine uptake (cpm): 24,951 cpm
[1]; MLC with immunosuppressive factor (3 µl) + swainsonine 0.02 µg/well
  ^3H-thymidine uptake (cpm): 31,595 cpm
[1]; MLC with immunosuppressive factor (3 µl) + swainsonine 0.2 µg/well
  ^3H-thymidine uptake (cpm): 27,942 cpm
[1]; MLC with immunosuppressive factor (3 µl) + swainsonine 2 µg/well
  ^3H-thymidine uptake (cpm): 23,928 cpm
[1]; MLC with immunosuppressive factor (5 µl) + swainsonine 0.00002 µg/well
  ^3H-thymidine uptake (cpm): 3,737 cpm
[1]; MLC with immunosuppressive factor (5 µl) + swainsonine 0.0002 µg/well
  ^3H-thymidine uptake (cpm): 6,377 cpm
[1]; MLC with immunosuppressive factor (5 µl) + swainsonine 0.002 µg/well
  ^3H-thymidine uptake (cpm): 10,918 cpm
[1]; MLC with immunosuppressive factor (5 µl) + swainsonine 0.02 µg/well
  ^3H-thymidine uptake (cpm): 7,679 cpm
[1]; MLC with immunosuppressive factor (5 µl) + swainsonine 0.2 µg/well
  ^3H-thymidine uptake (cpm): 7,928 cpm
[1]; MLC with immunosuppressive factor (5 µl) + swainsonine 2 µg/well
  ^3H-thymidine uptake (cpm): 6,709 cpm
[1]; MLC with swainsonine 0.00002 µg/well, no immunosuppressive factor
  ^3H-thymidine uptake (cpm): 20,653 cpm
[1]; MLC with swainsonine 0.0002 µg/well, no immunosuppressive factor
  ^3H-thymidine uptake (cpm): 21,823 cpm
[1]; MLC with swainsonine 0.002 µg/well, no immunosuppressive factor
  ^3H-thymidine uptake (cpm): 29,688 cpm
[1]; MLC with swainsonine 0.02 µg/well, no immunosuppressive factor
  ^3H-thymidine uptake (cpm): 33,686 cpm
[1]; MLC with swainsonine 0.2 µg/well, no immunosuppressive factor
  ^3H-thymidine uptake (cpm): 38,077 cpm
[1]; MLC with swainsonine 2 µg/well, no immunosuppressive factor
  ^3H-thymidine uptake (cpm): 33,104 cpm
[1]; immunosuppressive factor incubated with swainsonine
  inhibitory activity of immunosuppressive factor in MLC: the inhibitory activity was removed
[1]; swainsonine added to MLC
  MLC-stimulated spleen cells ^3H-thymidine uptake: enhanced remarkably
[2]; ICR mice without tumor, Swainsonine 100 mg/kg i.p.
  PFC-SRBC/spleen (average number of 5 mice/group): 118.7 x 10^4 PFC-SRBC/spleen
[2]; Tumor bearer (Sarcoma 180, ICR mice) + Swainsonine 100 mg/kg i.p., every day for five days
  PFC-SRBC/spleen (average number of 5 mice/group): 126.7 x 10^4 PFC-SRBC/spleen
[2]; Tumor bearer + Swainsonine 3.7 mg/kg i.p.
  PFC-SRBC/spleen (average number of 5 mice/group): 61.6 x 10^4 PFC-SRBC/spleen
[2]; Tumor bearer + Swainsonine 11 mg/kg i.p.
  PFC-SRBC/spleen (average number of 5 mice/group): 71.6 x 10^4 PFC-SRBC/spleen
[2]; Tumor bearer + Swainsonine 33 mg/kg i.p.
  PFC-SRBC/spleen (average number of 5 mice/group): 123.5 x 10^4 PFC-SRBC/spleen
[2]; tumor bearing mice
  capacities to produce antibody against SRBC: restored the capacities
[3]; BDF1 mice, Swainsonine 100 mg/kg i.p. alone
  PFC-SRBC/spleen (average number of 5 mice/group): 21.66 x 10^4 PFC-SRBC/spleen
[3]; Mitomycin C (1.0 mg/kg) + Swainsonine 3.7 mg/kg i.p.
  PFC-SRBC/spleen (average number of 5 mice/group): 21.31 x 10^4 PFC-SRBC/spleen
[3]; Mitomycin C (1.0 mg/kg) + Swainsonine 11 mg/kg i.p.
  PFC-SRBC/spleen (average number of 5 mice/group): 20.90 x 10^4 PFC-SRBC/spleen
[3]; Mitomycin C (1.0 mg/kg) + Swainsonine 33 mg/kg i.p.
  PFC-SRBC/spleen (average number of 5 mice/group): 20.90 x 10^4 PFC-SRBC/spleen
[3]; Mitomycin C (1.0 mg/kg) + Swainsonine 100 mg/kg i.p.
  PFC-SRBC/spleen (average number of 5 mice/group): 21.79 x 10^4 PFC-SRBC/spleen
[3]; mice injected mitomycin C
  capacities to produce antibody against SRBC: restored the capacities
[4]
  growth of transplantable tumors: inhibits growth
